Patent US7452865B2, “Antagonistic analogs of GH RH (2003)” (The Administrare's of the Tulane Educational Fund, priority 2004, dated 2008)
Marks after values point to notes of the source that are not given here. Square brackets hold non-standard residues; d marks the D form. Peptide text beside a SMILES is read from it. * marks the point of attachment. Phe(4-Cl) = N[C@@H](Cc1ccc(Cl)cc1)C(=O)O; hArg = N=C(N)NCCCC[C@H](N)C(=O)O; Nle = CCCC[C@H](N)C(=O)O; Abu = CC[C@H](N)C(=O)O; PhAc = O=C(Cc1ccccc1)*

What was measured:
[1] = test system: PC-3 human prostate cancer xenografts; test: PC-3 xenografts in nude mice, Experiment 2: tumor growth; assay type: in vivo; settings: for Tumor volume (mm^3) Initial: at start of treatment
Method: (§1) Male nude mice were implanted s.c. with 3 mm^3 pieces of PC-3 human hormone-independent prostate cancer tissue on both flanks. When tumors reached a volume of approx. 50 mm^3, the mice were divided into 5 experimental groups with 7 to 8 animals in each group and received single daily injections for 28 days as follows: 1. Control (vehicle solution); 2. JV-1-38 (10 μg/day s.c.); 3 Peptide 31 (10 μg/day s.c.); 4. Peptide 67 (10 μg/day s.c.); 5. Peptide 62 (10 μg/day s.c.). Tumor volumes were measured twice a week. The experiment was ended on day 29 by sacrificing the mice under Isoflurane anesthesia. Resulting tumors were cleaned, weighed, and snap-frozen until further analyses. Trunk blood was collected from the abdominal aorta and serum was separated for RIA measurement of IGF-I. Statistical analyses of the measurement results were done by two-tailed t-test; data are presented as the means±S.E.
(§2) Experiment 2 was similar to Experiment 1, with the difference that Experiment 2 was started when PC-3 tumors had grown to approximately 30 mm^3 in volume. At this time, the animals were divided into 8 experimental groups with 8 animals in each group, and received single daily injections for 28 days as follows. 1. Control (vehicle solution); 2. JV-1-38 (10 μg/day s.c.); 3. Peptide 46 (5 μg/day: s.c.); 4. Peptide 77 (5 μg/day s.c); 5. Peptide 76 (5 μg/day s.c.); 6. Peptide 70 (5 μg/day s.c.); 7 Peptide 79 (5 μg/day s.c.); 8. Peptide 80 (5 μg/day s.c.). Further details of Experiment 2 are the same as for Experiment 1.

IGF-I [2] = test: PC-3 xenografts, Experiment 2: serum IGF-I (RIA); assay type: in vivo, nude mice; settings: 28 days
Text: (§3) For the measurement of GH and IGF-I levels in the serum, as well as IGF-I and IGF-II concentrations in the cytosol fraction of tumors, blood samples and tumor samples were collected and processed as described (Braczkowski R, Schally A V, Plonowski A, Varga J L, Groot K, Krupa M, Armatis P, Cancer 95: 1735-1745, 2002), hereby incorporated by reference. Briefly, blood samples are centrifuged to separate the serum, tumors are homogenized and centrifuged to separate the cytosol fraction. Serum GH is then measured by the double-antibody RIA method. Before measurement by RIA, IGF-I and IGF-II are extracted from serum and cytosol fractions using an acid-ethanol cryoprecipitation method that eliminates most of the IGF binding proteins, which can interfere with the RIA. IGF-I concentration is measured by RIA using IGF-I as a standard and goat anti-IGF-I antibody (both from DSL Inc., Webster, Tex.). IGF-II concentration is measured by RIA using human recombinant IGF-II (Bachem) as a standard and anti-IGF-II monoclonal antibody (Amano International Enzyme, Troy, Va.).
as §1, §2

IGF-I [3] = test: PC-3 xenografts, Experiment 1: serum IGF-I (RIA); assay type: in vivo, nude mice; settings: 10 μg/day s.c., 28 days
Text: as §3, §1

IGF-II = test: PC-3 xenografts, Experiment 1: tumor IGF-II (RIA); assay type: in vivo, nude mice; settings: 10 μg/day s.c., 28 days
Text: as §3, §1

[4] = test system: PC-3 human prostate cancer xenografts; test: PC-3 xenografts in nude mice, Experiment 3: tumor growth; assay type: in vivo
Method: (§4) Male nude mice were implanted s.c. with 3 mm^3 pieces of PC-3 human hormone-independent prostate cancer tissue on both flanks. When tumors reached a volume of approximately 65 mm^3, the mice were divided into 7 experimental groups with 8 to 9 animals in each group and received single daily injections for 28 days as follows: 1. Control (vehicle solution); 2. JV-1-38 (10 μg/day s.c.); 3. Peptide 35 (10 μg/day s.c.); 4. Peptide 36 (10 μg/day s.c.); 5. Peptide 37 (10 μd/day s.c.); 6. Peptide 39 (10 μg/day s.c.); 7. Peptide 41 (10 μg/day s.c.). Tumor volumes were measured twice a week. The experiment was ended on day 28 by sacrificing the mice under Isofurane anesthesia. Resulting tumors were cleaned, weighed, and snapfrozen until further analyses. Trunk blood was collected from the abdominal aorta and serum was separated for RIA measurement of IGF-I. Statistical analyses of the measurement results were done by ANOVA followed by Fisher test; data are presented as the means±S.E.

[5] = test system: PC-3 human prostate cancer xenografts; test: PC-3 xenografts in nude mice, Experiment 1: tumor growth; assay type: in vivo
Method: as §1

[6] = test system: hGH-RH(1-29)NH2 induced GH release; test: Inhibition of GH release in superfused rat pituitary system; assay type: cell-based; settings: antagonist 30 nM
In short: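 GH output was quantified by double-antibody RIA in superfusates of rat pituitary cells. Peptides were applied for 9 min at various concentrations before a 3-min 1 nM hGH-RH(1-29)NH2 pulse, with further pulses 30–120 min later; net integral responses given as percent of the original response.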

[7] = test system: PC-3 human prostate cancer xenografts; test: PC-3 xenografts in nude mice, Experiment 4: tumor growth; assay type: in vivo; settings: for Tumor volume (mm^3) Final / Tumor volume doubling time / Tumor weight / Tumor volume Final (% inhibition) / Tumor weight (% inhibition): 5 μg/day s.c., 28 days; for Tumor volume Final (% inhibition) / Tumor weight (% inhibition): vs control; for Tumor volume (mm^3) Initial: at start of treatment
Method: as §4
(§5) All experimental details of Experiment 4 are the same as for Experiment 3, with the following difference. When tumors reached a volume of approximately 55 mm^3, the mice were divided into 5 experimental groups with 8 to 9 animals in each group and received single daily injections for 28 days as follows: 1. Control (vehicle solution); 2. Peptide 80 (5 μg/day s.c.); 3. Peptide 86 (5 μg/day s.c.); 4. Peptide 95 (5 μg/day s.c.); 5. Peptide 96 (5 μg/day s.c.). Further details of Experiment 4 are the same as for Experiment 3.

IGF-I [8] = test: PC-3 xenografts, Experiment 4: serum IGF-I (RIA); assay type: in vivo, nude mice; settings: 5 μg/day s.c., 28 days; for Serum IGF-I (% inhibition): vs control
Text: as §3, §4, §5

[9] = test system: GH-RH receptor isoforms on membrane fractions of human PC-3 prostate tumors; assay type: binding; settings: general statement
In short: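 Competitive displacement of [^125I]JV-1-42 from crude membranes of human PC-3 prostate tumours grown as nude-mouse xenografts, with unlabelled peptides at 10^−12 to 10^−6 M. Bound radioactivity in the centrifuged pellet gamma-counted; Ki from Munson–Rodbard analysis. Relative affinity = Ki of reference peptide (JV-1-36 or JV-1-38) / Ki of test antagonist.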

[10] = 10 μg/day s.c., 28 days, vs control
[11] = 5 μg/day s.c., 28 days, vs control

Compound: CCCC[C@H](NC(=O)[C@@H](NC(=O)[C@H](CC(=O)O)NC(=O)[C@H](CCC(N)=O)NC(=O)[C@H](CC(C)C)NC(=O)[C@H](CC(C)C)NC(=O)[C@H](CCCCN)NC(=O)[C@H](CCCNC(=N)N)NC(=O)[C@H](C)NC(=O)[C@H](CO)NC(=O)[C@H](CC(C)C)NC(=O)[C@H](CCC(N)=O)NC(=O)[C@H](CC)NC(=O)[C@H](CC(C)C)NC(=O)[C@@H](NC(=O)[C@H](CCCCN)NC(=O)[C@H](CCCNC(=N)N)NC(=O)[C@H](Cc1ccc(OC)cc1)NC(=O)[C@H](CCCCNC(=N)N)NC(=O)[C@H](CC(N)=O)NC(=O)[C@@H](NC(=O)[C@H](Cc1ccc(Cl)cc1)NC(=O)[C@@H](NC(=O)[C@H](C)NC(=O)[C@H](CC(=O)O)NC(=O)[C@@H](CCCNC(=N)N)NC(=O)[C@H](Cc1ccc(O)cc1)NC(=O)Cc1ccccc1)[C@@H](C)CC)[C@@H](C)O)C(C)C)[C@@H](C)CC)C(=O)N[C@H](CCCNC(=N)N)C(=O)N[C@@H](CCCCNC(=N)N)C(N)=O [JV-1-38, reference compound] (PhAc-Y[dR]DAI[Phe(4-Cl)]TN[hArg]Y(Me)RKVL[Abu]QLSARKLLQDI[Nle][dR][hArg]-NH2; N-terminus and C-terminus assumed)
- Tumor volume (mm^3) Initial ([1]; 10 μg/day group): 29.3 ± 3.8 mm^3
- Tumor volume (mm^3) Final ([1]; 10 μg/day s.c., 28 days): 351 ± 72.9 mm^3
- Tumor volume doubling time ([1]; 10 μg/day s.c., 28 days): 8.7 ± 0.7 days
- Tumor weight ([1]; 10 μg/day s.c., 28 days): 254 ± 52.0 mg
- Tumor volume Final (% inhibition) [1, 10]: (0%)
- Serum IGF-I (IGF-I [2]; 10 μg/day s.c.): 293 ± 28.0 ng/mL
- Serum IGF-I (IGF-I [3]): 147 ± 8.49 ng/mL
- Serum IGF-I (% inhibition) (IGF-I [3]; vs control): (1%)
- Tumor IGF-II (pg/mg protein) (IGF-II): 208 ± 43.3 pg/mg protein
- Tumor IGF-II (% inhibition) (IGF-II; vs control): (5%)
- Tumor volume (mm^3) Final ([4]; 10 μg/day s.c., 28 days): 276 ± 48.7** mm^3
- Tumor volume doubling time ([4]; 10 μg/day s.c., 28 days): 18.2 ± 1.84 days
- Tumor weight ([4]; 10 μg/day s.c., 28 days): 386 ± 62.9 mg
- Tumor volume Final (% inhibition) [4, 10]: (66%)
- Tumor weight (% inhibition) [4, 10]: (45%)
- Tumor volume (mm^3) Initial ([4]; at start of treatment): 68.3 ± 8.08 mm^3
- Tumor volume (mm^3) Final ([5]; 10 μg/day s.c., 28 days): 291 ± 80.4 mm^3
- Tumor volume doubling time ([5]; 10 μg/day s.c., 28 days): 12.3 ± 1.04 days
- Tumor weight ([5]; 10 μg/day s.c., 28 days): 239 ± 58.0 mg
- Tumor volume Final (% inhibition) [5, 10]: (42%)
- Tumor weight (% inhibition) [5, 10]: (37%)
- Tumor volume (mm^3) Initial ([5]; at start of treatment): 49.2 ± 8.37 mm^3
- GH response (% of control) 0 min ([6]; 1 nM hGH-RH(1-29)NH2 at 0 min): 59 % of control
- GH response (% of control) 30 min ([6]; 1 nM hGH-RH(1-29)NH2 at 30 min): 32 % of control
- GH response (% of control) 60 min ([6]; 1 nM hGH-RH(1-29)NH2 at 60 min): 28 % of control
- GH response (% of control) 90 min ([6]; 1 nM hGH-RH(1-29)NH2 at 90 min): 34 % of control
- GH response (% of control) 120 min ([6]; 1 nM hGH-RH(1-29)NH2 at 120 min): 31 % of control

Compound: [CH3(CH2)6CO-Tyr^1, D-Arg^2, Phe(pCl)^6, Ala^8, His^9, Tyr(Et)^10, His^11, Orn^12, Abu^15, His^20, Orn^21, Nle^27, D-Arg^28, Har^29]hGH-RH(1-29)NH2 [Peptide 96]
- antitumor effect on PC-3 tumors (in words) ([7]; 5 μg/day): strongest antitumor effect
- Tumor volume (mm^3) Final [7]: 301 ± 65.2** mm^3
- Tumor volume doubling time [7]: 11.0 ± 0.87 days
- Tumor weight [7]: 489 ± 114 mg
- Tumor volume Final (% inhibition) [7]: 77%
- Tumor weight (% inhibition) [7]: 66%
- Tumor volume (mm^3) Initial [7]: 56.2 ± 13.3 mm^3
- Serum IGF-I (IGF-I [8]): 114 ± 15.5 ng/mL
- Serum IGF-I (% inhibition) (IGF-I [8]): 31%
- binding affinities to the tumoral receptors for GH-RH (in words) [9]: extremely high binding affinities

Compound: [CH3(CH2)6CO-Tyr^1, D-Arg^2, Phe(pCl)^6, Ala^8, His^9, Tyr(Et)^10, His^11, Abu^15, Nle^27, D-Arg^28, Har^29]hGH-RH(1-29)NH2 [Peptide 80]
- Tumor volume (mm^3) Initial ([1]; 5 μg/day groups): 24.8 ± 2.2 mm^3
- Tumor volume (mm^3) Final ([1]; 5 μg/day s.c., 28 days): 128 ± 38.9*# mm^3
- Tumor volume doubling time ([1]; 5 μg/day s.c., 28 days): 16.7 ± 4.3 days
- Tumor weight ([1]; 5 μg/day s.c., 28 days): 137 ± 46.1 mg
- Tumor volume Final (% inhibition) [1, 11]: (64%)
- Tumor weight (% inhibition) [1, 11]: (52%)
- Serum IGF-I (IGF-I [2]; 5 μg/day s.c.): 152 ± 7.83 ng/mL
- Serum IGF-I (% inhibition) (IGF-I [2]; 5 μg/day s.c., vs control): 42%
- Tumor volume (mm^3) Final [7]: 398 ± 68.7* mm^3
- Tumor volume doubling time [7]: 10.7 ± 1.28 days
- Tumor weight [7]: 752 ± 150 mg
- Tumor volume Final (% inhibition) [7]: 68%
- Tumor weight (% inhibition) [7]: 48%
- Tumor volume (mm^3) Initial [7]: 53.2 ± 10.1 mm^3
- Serum IGF-I (IGF-I [8]): 136 ± 15.3 ng/mL
- Serum IGF-I (% inhibition) (IGF-I [8]): 18%
- binding affinities to the tumoral receptors for GH-RH (in words) [9]: extremely high binding affinities
